Source: US12370183B2, “Compositions and methods for treating malaria” (Rutgers, The State University of New Jersey, priority 2020, dated 2025)

What follows are compounds tested on 3D7 strain of Plasmodium falciparum (assay: Potency in the 3D7 strain of Plasmodium falciparum (EC50)). Settings: Plasmodium falciparum, 3D7.
Format: cell-based
From the text: The present invention relates to methods of treating malaria with tetrahydrobenzonaphtyridine carboxanilide (TBN) derivatives and related pyrrolinones and hydrolysis products thereof. These compounds are active against Plasmodium falciparum strains that are resistant to multiple drugs currently on the market. The present invention further relates to novel compounds and pharmaceutical compositions comprising such compounds. The compounds have been synthesized and tested for their potency in the 3D7 strain of Plasmodium falciparum. Their cytotoxicity was also tested in the BJ human fibroblast line. No compounds show significant cytotoxicity.
A high-throughput screen performed against the Plasmodium parasite. About 8,000 compounds were screened. Each hit was tested against resistant P. falciparum variants K1, V1S, D10DD, ATP4 1247, and C2B. Potency against these assays assured that the chemotype acts through a mechanism distinct from that of halofantrine, chloroquine, mefloquine, pyrimethamine, proguanil, atovaquone, and (+)SJ733. The toxicity of the compounds was also measured by testing their lethality against a BJ cell line (human fibroblasts). No TBNs were toxic. A structure activity investigation was performed in order to improve the EC50 of the TBNs to the single-digit nanomolar range, as well as to increase the water solubility.
Substituents were installed at N−2 by using a variety of methods. Reductive alkylation (Abdel-Magid, A. F.; Mehrman, S. J. A Review on the Use of Sodium Triacetoxyborohydride in the Reductive Amination of Ketones and Aldehydes. Org. Process Res. Dev. 2006, 10 (5), 971-1031) was a dependable technique that produced over fifteen analogues. Conjugate additions and nucleophilic substitutions provided most of the others. A type of reductive alkylation that uses carboxylic acids instead of aldehydes (the Beller reduction) led to two analogues (Sorribes, I.; Junge, K.; Beller, M. Direct Catalytic N-Alkylation of Amines with Carboxylic Acids. J. Am. Chem. Soc. 2014, 136 (40), 14314-14319. Some of the compounds listed were synthesized through other means, or were derived from other TBNs. Compounds 66 and 128 were produced by the amidation of acids 132 and 133, which had the corresponding substitution already installed. TBNs 93, and 94 were produced from the Pfitzinger products formed from the condensation of isatin with (R)-1-(1-phenylethyl)piperidin-4-one (134) and (S)-1-(1-phenylethyl)piperidin-4-one (135), respectively.

| SMILES | EC50 [µM] |
| --- | --- |
| O=C1c2c3c(nc4cc(Cl)ccc24)CCN(CCc2ccccc2)C3N1c1ccc(F)c(F)c1 (centres unmarked) [Compound 172, 8-Chloro-2-(3,4-difluorophenyl)-3-phenethyl-2a,3,4,5-tetrahydrobenzo[b]pyrrolo[4,3,2-de][1,6]naphthyridin-1(2H)-one] | 0.0071 |

Same assay, conditions: Plasmodium falciparum, 3D7, read-out: 3D7 Mean EC50 (μM)

| SMILES | EC50 [µM] |
| --- | --- |
| CCN1CCc2nc3ccccc3c(C(=O)Nc3ccc(F)c(F)c3)c2C1 [Compound 128, N-(3,4-Difluorophenyl)-2-ethyl-1,2,3,4-tetrahydrobenzo[b][1,6]naphthyridine-10-carboxamide] | > 12.2 |
| Cn1ccc(CN2CCc3nc4ccccc4c(C(=O)Nc4ccc(F)c(F)c4)c3C2)n1 [Compound 114, N-(3,4-Difluorophenyl)-2-((1-methyl-1H-pyrazol-3-yl)methyl)-1,2,3,4-tetrahydrobenzo[b][1,6]naphthyridine-10-carboxamide] | 1.89 ± 0.817 |
| COC(=O)CN1CCc2nc3ccccc3c(C(=O)Nc3ccc(F)c(F)c3)c2C1 [Compound 125, Methyl 2-(10-((3,4-difluorophenyl)carbamoyl)-3,4-dihydrobenzo[b][1,6]naphthyridin-2(1H)-yl)acetate] | 9.11 ± 7.61 |
| O=C(Nc1ccc(F)c(F)c1)c1c2c(nc3ccccc13)CCN(CCc1ccccn1)C2 [Compound 98, N-(3,4-Difluorophenyl)-2-(2-(pyridin-2-yl)ethyl)-1,2,3,4-tetrahydrobenzo[b][1,6]naphthyridine-10-carboxamide] | 0.329 ± 0.0232 |
| O=C1c2c3c(nc4cc(Cl)ccc24)CCN(CCc2ccccc2)C3N1c1ccc(F)c(F)c1 (centres unmarked) [Compound 172, 8-Chloro-2-(3,4-difluorophenyl)-3-phenethyl-2a,3,4,5-tetrahydrobenzo[b]pyrrolo[4,3,2-de][1,6]naphthyridin-1(2H)-one] | 0.0071 ± 0.000461 |
| O=C(Nc1ccc(F)c(F)c1)c1c2c(nc3ccc(Cl)cc13)CCN(CCc1ccccc1)C2 [Compound 158, 8-Chloro-N-(3,4-difluorophenyl)-2-phenethyl-1,2,3,4-tetrahydrobenzo[b][1,6]naphthyridine-10-carboxamide] | 0.0153 ± 0.00774 |
| O=C(Nc1ccc(F)c(F)c1)c1c2c(nc3cc(Cl)ccc13)CCN(CCc1ccccc1)C2 [Compound 157, 7-Chloro-N-(3,4-difluorophenyl)-2-phenethyl-1,2,3,4-tetrahydrobenzo[b][1,6]naphthyridine-10-carboxamide] | 0.0179 ± 0.01 |
| Cn1ccnc1CN1CCc2nc3ccccc3c(C(=O)Nc3ccc(F)c(F)c3)c2C1 [Compound 127, N-(3,4-Difluorophenyl)-2-((1-methyl-1H-imidazol-2-yl)methyl)-1,2,3,4-tetrahydrobenzo[b][1,6]naphthyridine-10-carboxamide] | 10.1 ± 6.39 |
| O=C(Nc1ccc(F)c(F)c1)c1c2c(nc3ccccc13)CCN(CCN1C(=O)c3ccccc3C1=O)C2 [Compound 121, N-(3,4-Difluorophenyl)-2-(2-(1,3-dioxoisoindolin-2-yl)ethyl)-1,2,3,4-tetrahydrobenzo[b][1,6]naphthyridine-10-carboxamide] | 3.95 ± 1.07 |
| O=C(Nc1ccc(F)c(F)c1)c1c2c(nc3ccccc13)CCN(Cc1ncccc1F)C2 [Compound 118, N-(3,4-difluorophenyl)-2-((3-fluoropyridin-2-yl)methyl)-1,2,3,4-tetrahydrobenzo[b][1,6]naphthyridine-10-carboxamide] | 3.41 ± 2.9 |
| CCOCC(=O)N1CCc2nc3ccccc3c(C(=O)Nc3ccc(F)c(F)c3)c2C1 [Compound 119, N-(3,4-Difluorophenyl)-2-(2-ethoxyacetyl)-1,2,3,4-tetrahydrobenzo[b][1,6]naphthyridine-10-carboxamide] | 3.49 ± 0.831 |
| Cn1cnc(CN2CCc3nc4ccccc4c(C(=O)Nc4ccc(F)c(F)c4)c3C2)c1 [Compound 117, N-(3,4-Difluorophenyl)-2-((1-methyl-1H-imidazol-4-yl)methyl)-1,2,3,4-tetrahydrobenzo[b][1,6]naphthyridine-10-carboxamide] | 2.4 ± 1.39 |

Same assay, conditions: Plasmodium falciparum, 3D7, read-out: potency (EC50)

| SMILES | EC50 [µM] |
| --- | --- |
| CC(=O)O[C@H]1CO[C@H]2[C@@H]1OC[C@@H]2Oc1cccc(NC(=O)c2c3c(nc4ccccc24)CCN(CCc2ccccc2)C3)c1 [Compound 147, (3S,3aR,6S,6aR)-6-(3-(2-Phenethyl-1,2,3,4-tetrahydrobenzo[b][1,6]naphthyridine-10-carboxamido)phenoxy)hexahydrofuro[3,2-b]furan-3-yl acetate] | 3.87 |
